From US11504410B2, “Neuroprotection and neuroregeneration by pterostilbene and compositions thereof” (THERAPEUTIC SOLUTIONS INTERNATIONAL, INC., priority 2020, dated 2022)

Legend:
[1] = tested on: classical complement activation pathway; conditions: 15 U intravenously, cited from earlier work
[2] = tested on: classical complement activation pathway; conditions: cited from earlier work
[3] = Relative bioavailability of pterostilbene; type: in vivo; conditions: compared with creatine monohydrate
Source text: Without being bound by any particular theory, due to its improved solubility, pterostilbene is also expected to have better oral absorption properties compared to various other neuroprotectants. As used herein, “bioavailability” refers to the rate and amount of a drug or supplement that reaches the systemic circulation of a patient following administration of the drug or supplement. […] The terms “treatment,” “treating,” and “treat, are used herein to refer generally to obtaining a desired pharmacological and/or physiological effect. The effect may be prophylactic in terms of completely or partially preventing a disease or symptom thereof and/or may be therapeutic in terms of a partial or complete stabilization or cure for a disease and/or adverse effect attributable to the disease. “Treatment” as used herein covers any treatment of a disease in a subject, and includes: (a) preventing the disease or symptom from occurring in a subject which may be predisposed to the disease or symptom, but has not yet been diagnosed as having it; (b) inhibiting the disease symptom, i.e., arresting its development; or (c) relieving the disease symptom, i.e., causing regression of the disease or symptom.

Row | relative bioavailability greater than creatine monohydrate [3] | Compound | improvement of focal neurologic deficits ([1]; 48 hours after ischemia) [%] | improvement of general neurologic deficits ([1]; 48 hours after ischemia) [%] | infarct volume of total brain ([1]; 48 hours after ischemia) [%+/−2.93%] | neutral red staining in cortex, hippocampus, and striatum [1] | mean arterial blood pressure (MABP) and arterial blood gases ([2]; rat, in vivo) | regional cerebral blood flow (rCBF) ([2]; rats, after occlusion, versus vehicle) | reduction of infarct volume ([2]; rats, infusion over 30 min after occlusion, evaluated after 5 days survival) [%]
1 | – | C1-INH: C1-esterase inhibitor, inhibits the classical complement activation pathway | 54 | 36 | 6.69 | strong protective effect | unaffected by the treatment | No difference was noted between experimental groups | 72
2 | at least 50% | COc1cc(/C=C/c2ccc(O)cc2)cc(OC)c1 [pterostilbene] | – | – | – | – | – | – | –
